Broadly, the IC50 is the concentration that gives 50% inhibition.

Read-outs that look alike come from different tables or passages of the source.

Series [1] addresses T1, AChE (EC 3.1.1.7) from electric eel (Electrophorus electricus, UniProt O42275).
T1 construct: purchased Sigma-Aldrich
Briefly: biochemical. Format: biochemical. Conditions: for SI (selectivity index = AChE IC50/BChE IC50): eeAChE IC50 / eqBChE IC50; for IC50: eeAChE, mean ± SEM of triplicate independent experiments, read-out: AChE IC50. The method, then: (§1) The data were expressed as IC50 values (Table 1).
(§2) The inhibitory activities of the target compounds towards AChE (from Electrophorus electricus (electric eeAChE, Sigma-Aldrich) and horse serum BChE (eqBChE, Sigma-Aldrich) or human AChE – huAChE; human BuChE – huBuChE (huAChE, huBuChE, Sigma-Aldrich) were measured by Ellman’s method. In 96-well plates, a mixture of phosphate buffer (0.1 M, pH 8.0, […]), 5,5′-dithiobis-2-nitrobenzoic acid (DTNB, 60 µL), acetylcholinestrase or butyrylcholinesterase (20 µL, 5 IU/mL) and different concentration of the compound solution (30 µL) was pre-incubated for 5 min followed by the addition of the substrate (acetylthiocholine iodide or butyrylthiocholine iodide, 20 µL). […] The measurement of each concentration for each compound was detected in triplicate. GraphPad Prism 6.0 (GraphPad Software, Inc., La Jolla, CA) was used for data processing. The inhibition curve was fitted by plotting percentage enzyme activity (100% for the reference) versus the logarithm of the concentration of tested compound. The half-maximal inhibitory concentration (IC50) values were calculated according to the inhibition curve and the data were shown in the layout of mean ± SEM by GraphPad Prism 6.0.

For series [2], the target named is T2, BChE (EC 3.1.1.8) from horse serum (Equus caballus, UniProt P81908).
T2 construct: horse serum BChE (eqBChE, Sigma-Aldrich); purchased Sigma-Aldrich; host or cells: horse serum
T2 sequence (P81908 whole entry): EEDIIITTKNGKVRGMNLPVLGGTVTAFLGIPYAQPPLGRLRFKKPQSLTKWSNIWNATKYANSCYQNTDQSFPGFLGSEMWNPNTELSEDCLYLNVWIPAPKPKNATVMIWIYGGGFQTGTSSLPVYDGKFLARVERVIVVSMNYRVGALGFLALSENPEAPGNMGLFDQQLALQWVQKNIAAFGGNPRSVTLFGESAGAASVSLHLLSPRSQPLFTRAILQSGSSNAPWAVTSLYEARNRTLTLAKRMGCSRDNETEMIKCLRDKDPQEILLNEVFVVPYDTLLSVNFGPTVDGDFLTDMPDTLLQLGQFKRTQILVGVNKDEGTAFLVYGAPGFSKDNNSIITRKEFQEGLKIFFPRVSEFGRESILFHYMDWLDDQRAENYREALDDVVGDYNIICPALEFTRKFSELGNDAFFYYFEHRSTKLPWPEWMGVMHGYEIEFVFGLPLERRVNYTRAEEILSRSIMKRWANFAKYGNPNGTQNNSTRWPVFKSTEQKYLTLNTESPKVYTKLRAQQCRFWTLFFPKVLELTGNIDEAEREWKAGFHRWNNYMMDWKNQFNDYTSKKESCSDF
The series is described as follows: biochemical. Conditions: eqBChE; mean ± SEM of triplicate independent experiments; read-out: BChE IC50. The method, then: as §1, §2

Series [3] is classed as in vivo. Particulars: serum, tacrine 30 mg kg−1, mean ± SEM n = 6. The method, then:
. Heparinised serum was obtained after the treatment of 15b and 15j at 8, 22, and 36 h, respectively. The serum levels of ALT and AST are directly proportional to the severity of the liver damage. […]

The next series relates to liver. Briefly: Liver histopathological study (HE staining). Conditions: 36 h after administration, compared to control group. The text has this:
Figure 7. […] HE staining, original magnification ×200.

The test system of series [4] is scopolamine-induced cognition impairment in ICR mice. The series is described as follows: Morris water maze test, scopolamine-induced cognition impairment. It counts as in vivo. Conditions: oral 15 mg kg−1, scopolamine 1 mg kg−1 ip, probe trial on sixth day, mean ± SEM n = 6. The method, then: The test included 5 days of learning and memory training and a probe trial on the sixth day.
Scopolamine hydrobromide was supplied by Aladdin Reagents (H1507073, Shanghai, China).
Cognitive function was evaluated by the Morris water maze analysis-management system (SMART 3.0, Panlab, Madrid, Spain), according to the method previously described[30].The maze was placed in a lit room with visual cues at 25 °C. An escape platform (10 cm diameter) was located in the centre of one quadrant of the circular pool (120 cm diameter, 60 cm height) with a depth of 40 cm water. The behavioural study of each mouse included 5 days of learning and memory training and a probe trial on day 6. The animal starting positions faced to the pool wall, and were pseudorandomised for each trial. For the cognitive evaluation, each mouse was individually evaluated on both visible-platform (days 1–2) and hidden-platform (days 3–5) versions of the water maze. All mice received nonspatial pretraining during the first two training days, which prepared them for the subsequent spatial learning test. During the two days, mice were trained to find the platform that was labelled by a small flag (5 cm tall). The hidden platform version was used to determine the retention of memory to find the platform. During the hidden-platform training trials, the escape platform was placed 1 cm below the surface of the water. On each day, the animal was subjected to two trials, each of which lasted for 90 s. The time for the mouse to find the platform (a successful escape) was recorded. […] On the last day (day 6), the platform was removed from its location and the animals were given a probe trial in which they had 90 s to search for the platform. The time taken to reach the missing platform and the number of times the animals crossed the platform location were recorded.
Data for the time of escape latency, the trajectory travelled, and the number of platform location crossings were recorded by SMART 3.0, Panlab, Madrid, Spain and processed by GraphPad Prism 6.0.

T1 sequence (O42275 24-633): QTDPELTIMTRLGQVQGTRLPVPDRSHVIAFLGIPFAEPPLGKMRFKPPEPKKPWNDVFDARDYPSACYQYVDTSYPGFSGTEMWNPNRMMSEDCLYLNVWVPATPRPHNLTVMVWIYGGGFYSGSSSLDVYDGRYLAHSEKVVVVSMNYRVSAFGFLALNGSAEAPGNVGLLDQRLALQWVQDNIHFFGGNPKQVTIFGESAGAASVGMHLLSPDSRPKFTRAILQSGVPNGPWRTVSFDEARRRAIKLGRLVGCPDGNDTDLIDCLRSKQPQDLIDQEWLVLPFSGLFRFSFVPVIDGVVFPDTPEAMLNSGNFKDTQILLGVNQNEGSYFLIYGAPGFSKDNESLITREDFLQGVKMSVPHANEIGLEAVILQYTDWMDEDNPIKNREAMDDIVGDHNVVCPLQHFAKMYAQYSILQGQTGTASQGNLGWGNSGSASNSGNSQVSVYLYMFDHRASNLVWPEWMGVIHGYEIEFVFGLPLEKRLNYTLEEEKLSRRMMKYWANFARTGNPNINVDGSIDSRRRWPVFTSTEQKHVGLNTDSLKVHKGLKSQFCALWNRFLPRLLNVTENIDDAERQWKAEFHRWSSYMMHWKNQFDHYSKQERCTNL

With `COc1cccc(CN2CCC(CNS(=O)(=O)c3ccc4c(c3)n(C)c(=O)n4C)CC2)c1` [Compound 15e, N-((1–(3-methoxybenzyl)piperidin-4-yl)methyl)-1,3-dimethyl-2-oxo-2,3-dihydro-1H-benzo[d]imidazole-5-sulphonamide], in series [1], the “SI (selectivity index = AChE IC50/BChE IC50)” value is on record as 0.45 and the IC50 was 9350 ± 2320 nM. In addition, in series [2], the IC50 came to 20300 ± 3080 nM.

Turning to `Cn1c(=O)n(C)c2cc(S(=O)(=O)NCC3CCN(Cc4cccc(F)c4)CC3)ccc21` [Compound 15f, N-((1–(3-fluorobenzyl)piperidin-4-yl)methyl)-1,3-dimethyl-2-oxo-2,3-dihydro-1H-benzo[d]imidazole-5-sulphonamide], in series [1], the “SI (selectivity index = AChE IC50/BChE IC50)” value was found to be 0.75 and the IC50 stood at 1040 ± 480 nM. Also, the IC50 in series [2] was 1370 ± 740 nM.

For the molecule `Cn1c(=O)n(C)c2cc(S(=O)(=O)NCC3CCN(Cc4cccc(Cl)c4)CC3)ccc21` [Compound 15g, N-((1–(3-chlorobenzyl)piperidin-4-yl)methyl)-1,3-dimethyl-2-oxo-2,3-dihydro-1H-benzo[d]imidazole-5-sulphonamide], in series [1], the “SI (selectivity index = AChE IC50/BChE IC50)” value was determined as 0.15. For the same molecule, the IC50 in series [1] was 150 ± 20 nM; in series [2] it was 1010 ± 460 nM.

On to `Cn1c(=O)n(C)c2cc(S(=O)(=O)NCC3CCN(Cc4ccc(Cl)cc4)CC3)ccc21` [Compound 15h, N-((1–(4-chlorobenzyl)piperidin-4-yl)methyl)-1,3-dimethyl-2-oxo-2,3-dihydro-1H-benzo[d]imidazole-5-sulphonamide], for which, in series [1], the “SI (selectivity index = AChE IC50/BChE IC50)” value turned out to be 0.87 and the IC50 was 1950 ± 280 nM. For the same molecule, the IC50 in series [2] was 2230 ± 810 nM.

As for `Cn1c(=O)n(C)c2cc(S(=O)(=O)NCC3CCN(Cc4ccccc4Br)CC3)ccc21` [Compound 15i, N-((1–(2-bromobenzyl)piperidin-4-yl)methyl)-1,3-dimethyl-2-oxo-2,3-dihydro-1H-benzo[d]imidazole-5-sulphonamide], the figures for the IC50 in series [1] and in series [2] were 420 ± 60 nM and 220 ± 40 nM, respectively.

In series [3] (8 h after treatment), `Nc1c2c(nc3ccccc13)CCCC2` [Tacrine] gave an ALT of 32.7 ± 1.7 U/L and an AST of 95.1 ± 9.5 U/L. In series [3] (22 h after treatment), this molecule returned an ALT of 31.7 ± 1.2 U/L and an AST of 108.9 ± 6.1 U/L. In series [3] (36 h after treatment), this molecule had an ALT of 35.8 ± 6.7 U/L and an AST of 110.4 ± 9.4 U/L. Moreover, in the series on liver, the “morphologic changes in liver” value is “did not result in remarkable morphologic changes in liver”. In series [4], this molecule displayed a Distance to target of 310.01 ± 9.54 cm and a Latency to target of 12.06 ± 0.37 s.

Source of the values: article PMC6968383, “Design, synthesis, in vitro and in vivo evaluation of benzylpiperidine-linked 1,3-dimethylbenzimidazolinones as cholinesterase inhibitors against Alzheimer’s disease” (Journal of Enzyme Inhibition and Medicinal Chemistry, 2019).
